Results: PubChem BioAssay (NCI)
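All cell lines were grown in 96-well plates and treated with compound for 48 hours. TGI marks complete inhibition of growth.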

Columns and labels:
Test in all cases: NCI-60 cell line screen, 48 h
786-0 renal = tested on: 786-0 renal
A498 renal = tested on: A498 renal
A549 NSCLC = tested on: A549 NSCLC
ACHN renal = tested on: ACHN renal
BT-549 breast = tested on: BT-549 breast
CAKI-1 renal = tested on: CAKI-1 renal
CCRF-CEM leukemia = tested on: CCRF-CEM leukemia
COLO 205 colon = tested on: COLO 205 colon
DU-145 prostate = tested on: DU-145 prostate
EKVX NSCLC = tested on: EKVX NSCLC
HCC-2998 colon = tested on: HCC-2998 colon
HCT-116 colon = tested on: HCT-116 colon
HCT-15 colon = tested on: HCT-15 colon
HL-60(TB) leukemia = tested on: HL-60(TB) leukemia
HOP-62 NSCLC = tested on: HOP-62 NSCLC
HOP-92 NSCLC = tested on: HOP-92 NSCLC
HS 578T breast = tested on: HS 578T breast
HT29 colon = tested on: HT29 colon
IGROV1 ovarian = tested on: IGROV1 ovarian
K-562 leukemia = tested on: K-562 leukemia
KM12 colon = tested on: KM12 colon
LOX IMVI melanoma = tested on: LOX IMVI melanoma
M14 melanoma = tested on: M14 melanoma
MALME-3M melanoma = tested on: MALME-3M melanoma
MCF7 breast = tested on: MCF7 breast
MDA-MB-231 breast = tested on: MDA-MB-231 breast
MDA-MB-435 = tested on: MDA-MB-435
MDA-N = tested on: MDA-N
MOLT-4 leukemia = tested on: MOLT-4 leukemia
NCI-H226 lung = tested on: NCI-H226 lung
NCI-H23 lung = tested on: NCI-H23 lung
NCI-H460 lung = tested on: NCI-H460 lung
NCI-H522 lung = tested on: NCI-H522 lung
NCI/ADR-RES ovarian = tested on: NCI/ADR-RES ovarian
OVCAR-3 ovarian = tested on: OVCAR-3 ovarian
OVCAR-4 ovarian = tested on: OVCAR-4 ovarian
OVCAR-5 ovarian = tested on: OVCAR-5 ovarian
OVCAR-8 ovarian = tested on: OVCAR-8 ovarian
PC-3 prostate = tested on: PC-3 prostate
RPMI-8226 leukemia = tested on: RPMI-8226 leukemia
RXF 393 renal = tested on: RXF 393 renal
SF-268 CNS = tested on: SF-268 CNS
SF-295 CNS = tested on: SF-295 CNS
SF-539 CNS = tested on: SF-539 CNS
SK-MEL-2 melanoma = tested on: SK-MEL-2 melanoma
SK-MEL-28 melanoma = tested on: SK-MEL-28 melanoma
SK-MEL-5 melanoma = tested on: SK-MEL-5 melanoma
SK-OV-3 ovarian = tested on: SK-OV-3 ovarian
SN12C renal = tested on: SN12C renal
SNB-19 CNS = tested on: SNB-19 CNS
SNB-75 CNS = tested on: SNB-75 CNS
SW-620 colon = tested on: SW-620 colon
T-47D breast = tested on: T-47D breast
TK-10 renal = tested on: TK-10 renal
U251 CNS = tested on: U251 CNS
UACC-257 melanoma = tested on: UACC-257 melanoma
UACC-62 melanoma = tested on: UACC-62 melanoma
UO-31 renal = tested on: UO-31 renal

Measured: TGI

Cc1ccc2ccc(O)cc2c1
48.8 µM: U251 CNS
42.6 µM: MDA-N
57.3 µM: IGROV1 ovarian
42.4 µM: NCI-H522 lung
61.8 µM: CCRF-CEM leukemia
60.4 µM: NCI/ADR-RES ovarian
67.1 µM: UO-31 renal
80.9 µM: HOP-92 NSCLC
66.4 µM: RPMI-8226 leukemia
47.1 µM: K-562 leukemia
55.9 µM: MOLT-4 leukemia
60.9 µM: OVCAR-8 ovarian
99.4 µM: BT-549 breast
28.7 µM: OVCAR-3 ovarian
52.9 µM: PC-3 prostate
> 100 µM: 786-0 renal | A498 renal | A549 NSCLC | ACHN renal | CAKI-1 renal | COLO 205 colon | DU-145 prostate | EKVX NSCLC | HCT-116 colon | HCT-15 colon | HOP-62 NSCLC | HS 578T breast | HT29 colon | KM12 colon | LOX IMVI melanoma | M14 melanoma | MALME-3M melanoma | MCF7 breast | MDA-MB-231 breast | NCI-H226 lung | NCI-H23 lung | NCI-H460 lung | OVCAR-5 ovarian | RXF 393 renal | SF-268 CNS | SF-295 CNS | SF-539 CNS | SK-MEL-2 melanoma | SK-MEL-28 melanoma | SK-MEL-5 melanoma | SK-OV-3 ovarian | SN12C renal | SNB-19 CNS | SNB-75 CNS | SW-620 colon | T-47D breast | TK-10 renal | UACC-257 melanoma | UACC-62 melanoma
52.8 µM: HL-60(TB) leukemia
52 µM: OVCAR-4 ovarian
46.8 µM: HCC-2998 colon | MDA-MB-435
